# Reference: US20090291953A1, “PHAR[…] OF REBOXETINE” (Pfizer Inc, priority 2002, published 2009)
# Assays:
# Assay type in all cases: physicochemical
# [1] = Thermogravimetric Analysis (TGA), volatile content
# Protocol: The volatile content measured by means of Thermogravimetric Analysis (TGA) was relevant: in fact, a weight loss of about 2% was detected upon heating showing a related thermal feature. Whereas for SS-reboxetine fumarate and succinate salts a negligible […] weight loss was measured.
# [2] = DSC analyses on samples recovered after DVS tests; settings: for DSC profile after equilibration at high humidity (DVS test method): maximum relative humidity of 90% at 25° C., equilibration up to 0.005%/min or no more than 360 minutes; for Modification of solid structure after DVS test (observed by DSC): tested sample after DVS sorption/desorption
# Protocol: DSC analyses were carried out with a Perkin-Elmer DSC-7 apparatus. Aluminium DSC pans were loaded with about of 2 mg of sample. The temperature range of analysis was between 30° and 210° C. The samples were analyzed under nitrogen flow (to eliminate oxidative and pyrrolitic effects) at a heating rate of 10° C./min.
# DSC analyses were executed as reported above also on the samples recovered after DVS tests, executed according to the DMSG principle. As shown below in FIG. 5, DSC profiles of SS-reboxetine succinate and fumarate salts were unchanged after equilibration at high humidity according to the DVS test method (maximum relative humidity of 90% at 25° C. and equilibration up to 0.005%/min or no more than 360 minutes).
# [3] = Hygroscopicity test by Dynamic Moisture Sorption Gravimetry (DVS 1000); settings: for Effects of moisture update: reversibility / retention of water uptake: DVS sorption/desorption, dependent on relative environmental humidity; for Water uptake %: 25° C.
# Text: The water uptake of succinate and fumarate salts of S,S-reboxetine was investigated by submitting a sample of such salts to a hygroscopicity test by means of a DVS 1000 (SMS) according to the principle of Dynamic Moisture Sorption Gravimetry (DMSG). The apparatus is a “controlled atmosphere microbalance” where the weighed sample is exposed to programmed variations of the relative humidity (RH) at a constant and controlled temperature. The measured parameters (weight, time and RH), reported in Excel worksheets, allowed obtaining hygroscopicity curves over the tested RH range. Multiple sorption/desorption cycles between 0% and 90% RH were performed at 25° C. Progressive variations of RH were of 10%; they were operated by the software at the equilibration of the sample weight. This condition was defined at a constant rate of percent weight variation 0.005%/min (average of 5 minutes survey). The experimental results were reported in the DVS Isotherm Reports and Isotherm Plots.
# The obtained results are summarized in the Table V, reporting the water uptake expressed as percent change in mass, and FIG. 4.
# [4] = listed as S,S-reboxetine mesylate
smiles,measurement,setting,value
"CCOc1ccccc1O[C@H](c1ccccc1)[C@H]1CNCCO1.CS(=O)(=O)O [Mesylate salt, S,S-reboxetine mesylate]","Weight loss upon heating (volatile content, TGA)",[1],about 2%
same,DSC profile after equilibration at high humidity (DVS test method),[2],complete destructuration
same,Modification of solid structure after DVS test (observed by DSC),[2]; [4],solid state modification was observed
same,Modification of solid structure after DVS test (observed by DSC),[2]; listed as mesylate salt,loss of crystallinity
same,Effects of moisture update: reversibility / retention of water uptake,[3],Retention of water
same,Effects of moisture update: reversibility / retention of water uptake,[3]; [4],only partially eliminated
same,Water uptake retained after re-equilibration,"[3]; DVS, after re-equilibration",about 4%
same,Amount of water adsorbed (uptake) in hygroscopicity test,"[3]; DVS, at 90% RH printed for mesylate salt",up to 9%
same,Desorption Cycle Water content % (percent change in mass),[3]; Relative Humidity 0%,4.3%
same,Sorption Cycle Water content % (percent change in mass),[3]; Relative Humidity 0%,0.0%
same,Desorption Cycle Water content % (percent change in mass),[3]; Relative Humidity 20%,4.5%
same,Sorption Cycle Water content % (percent change in mass),[3]; Relative Humidity 20%,0.5%
same,Desorption Cycle Water content % (percent change in mass),[3]; Relative Humidity 35%,4.6%
same,Sorption Cycle Water content % (percent change in mass),[3]; Relative Humidity 35%,0.6%
same,Desorption Cycle Water content % (percent change in mass),[3]; Relative Humidity 50%,4.6%
same,Sorption Cycle Water content % (percent change in mass),[3]; Relative Humidity 50%,0.7%
same,Desorption Cycle Water content % (percent change in mass),[3]; Relative Humidity 65%,4.6%
same,Sorption Cycle Water content % (percent change in mass),[3]; Relative Humidity 65%,0.9%
same,Desorption Cycle Water content % (percent change in mass),[3]; Relative Humidity 80%,4.7%
same,Sorption Cycle Water content % (percent change in mass),[3]; Relative Humidity 80%,4.5%
same,Desorption Cycle Water content % (percent change in mass),[3]; Relative Humidity 90%,8.7%
same,Sorption Cycle Water content % (percent change in mass),[3]; Relative Humidity 90%,8.7%
same,Effects of moisture update: change in crystalline form,[3]; after water uptake in DVS test,Irreversible change
"CCOc1ccccc1O[C@@H](c1ccccc1)[C@@H]1CNCCO1.O=C(O)/C=C/C(=O)O (single isomer, unassigned) [Fumarate salt, Reboxetine S,S Enantiomer Fumarate Salt]","Weight loss upon heating (TGA), in words",[1],negligible
same,DSC profile after equilibration at high humidity (DVS test method),[2],unchanged
same,Effects of moisture update: reversibility / retention of water uptake,[3]; Fumarate Salt,Reversible water
same,Effects of moisture update: reversibility / retention of water uptake,"[3]; listed as fumarate salt, Fumarate Salt",reversible
same,Water uptake %,[3]; Relative Humidity 20%,0.06%
same,Water uptake %,[3]; Relative Humidity 35%,0.11%
same,Water uptake %,[3]; Relative Humidity 50%,0.16%
same,Water uptake %,[3]; Relative Humidity 65%,0.21%
same,Water uptake %,[3]; Relative Humidity 80%,0.31%
same,Water uptake %,[3]; Relative Humidity 90%,0.47%
"CCOc1ccccc1O[C@@H](c1ccccc1)[C@@H]1CNCCO1.O=C(O)CCC(=O)O (single isomer, unassigned) [Succinate salt, Reboxetine S,S Enantiomer Succinate Salt]","Weight loss upon heating (TGA), in words",[1],negligible
same,DSC profile after equilibration at high humidity (DVS test method),[2],unchanged
same,Effects of moisture update: reversibility / retention of water uptake,[3]; Succinate Salt,Reversible water
same,Effects of moisture update: reversibility / retention of water uptake,"[3]; listed as succinate salt, Succinate Salt",reversible
same,Water uptake %,[3]; Relative Humidity 20%,0.03%
same,Water uptake %,[3]; Relative Humidity 35%,0.06%
same,Water uptake %,[3]; Relative Humidity 50%,0.10%
same,Water uptake %,[3]; Relative Humidity 65%,0.14%
same,Water uptake %,[3]; Relative Humidity 80%,0.21%
same,Water uptake %,[3]; Relative Humidity 90%,0.29%
